Laboratory results taken from patent US20100209345A1, “Fluorinated Ligands for Targeting Peripheral Benzodiazepine Receptors” (Australian Nuclear Science & Technology Organisation, priority 2006, published 2010).

Legend:
[1] = Biodistribution of 18F-labelled tracers in rats; assay type: in vivo
Outline: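 Sprague-Dawley rats received 18F tracer, and brain and peripheral tissues were analysed at 15 and 30 min and 1 and 4 h post-injection. For specificity, rats were pretreated 5 min beforehand with PK11195 or Ro 5-4864 (PBR) or flumazenil (CBR), each at 1 mg/kg.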

[2] = LogP HPLC
[3] = SD rats, 15 min, decay correction not stated
[4] = SD rats, 4 hours, decay correction not stated
[5] = rats, 15 min, corrected for decay of 18F
[6] = rats, 15 min, not corrected for decay of 18F
[7] = rats, 30 min, corrected for decay of 18F
[8] = rats, 30 min, not corrected for decay of 18F
[9] = rats, 60 min (1 hour), not corrected for decay of 18F
[10] = rats, 60 min, corrected for decay of 18F
[11] = rats, 4 hours, corrected for decay of 18F
[12] = rats, 4 hours, not corrected for decay of 18F

Compound: CCN(CC)C(=O)Cc1c(-c2ccc(OCCF)cc2)nc2ccc(Cl)cn12 [PBR102, 2-(2-(4-(2-fluoroethoxy)phenyl)-6-chloroimidazo[1,2-a]pyridin-3-yl)-N,N-diethylacetamide]
- Biodistribution: Bone [1, 3]: 0.4 % ID/g
- Biodistribution: Kidney [1, 3]: 4.5 % ID/g
- Biodistribution: Olfactory bulbs [1, 3]: 0.56 % ID/g
- Biodistribution: Adrenals ([1]; SD rats, 30 min, decay correction not stated): 9 % ID/g
- Biodistribution: Adrenals [1, 4]: 11 % ID/g
- Biodistribution: Bone [1, 4]: 1.0 % ID/g
- Biodistribution: Kidney [1, 4]: 1.3 % ID/g
- Biodistribution: Olfactory bulbs [1, 4]: 0.40 % ID/g
- Blood activity level / concentration in the blood over the 4 h study period ([1]; SD rats, throughout 15 min to 4 h): 0.20%
- Biodistribution: Bone [1, 5]: 0.46 ± 0.04 % ID/g
- Biodistribution: Heart [1, 5]: 4.35 ± 0.33 % ID/g
- Biodistribution: Lungs [1, 5]: 14.30 ± 1.45 % ID/g
- Biodistribution: Skin [1, 5]: 0.24 ± 0.03 % ID/g
- Biodistribution: Adrenals [1, 6]: 8.30 ± 2.13 % ID/g
- Biodistribution: Bladder [1, 6]: 0.59 ± 0.14 % ID/g
- Biodistribution: Blood [1, 6]: 0.25 ± 0.06 % ID/g
- Biodistribution: Bone [1, 6]: 0.56 ± 0.07 % ID/g
- Biodistribution: Brain [1, 6]: 0.24 ± 0.03 % ID/g
- Biodistribution: GIT [1, 6]: 0.82 ± 0.11 % ID/g
- Biodistribution: Heart [1, 6]: 5.23 ± 0.33 % ID/g
- Biodistribution: Kidney [1, 6]: 3.90 ± 0.53 % ID/g
- Biodistribution: Liver [1, 6]: 0.75 ± 0.21 % ID/g
- Biodistribution: Lungs [1, 6]: 17.25 ± 1.70 % ID/g
- Biodistribution: Muscle [1, 6]: 0.49 ± 0.03 % ID/g
- Biodistribution: Olfactory bulbs [1, 6]: 0.68 ± 0.12 % ID/g
- Biodistribution: Pancreas [1, 6]: 1.74 ± 0.22 % ID/g
- Biodistribution: Skin [1, 6]: 0.29 ± 0.05 % ID/g
- Biodistribution: Spleen [1, 6]: 5.35 ± 0.89 % ID/g
- Biodistribution: Stomach [1, 6]: 0.80 ± 0.19 % ID/g
- Biodistribution: Testes [1, 6]: 0.22 ± 0.02 % ID/g
- Biodistribution: Thymus [1, 6]: 0.68 ± 0.17 % ID/g
- Biodistribution: Thyroid [1, 6]: 7.74 ± 1.90 % ID/g
- Biodistribution: Bone [1, 7]: 0.52 ± 0.05 % ID/g
- Biodistribution: Heart [1, 7]: 4.44 ± 0.26 % ID/g
- Biodistribution: Lungs [1, 7]: 12.10 ± 1.98 % ID/g
- Biodistribution: Skin [1, 7]: 0.31 ± 0.03 % ID/g
- Biodistribution: Adrenals [1, 8]: 9.75 ± 1.53 % ID/g
- Biodistribution: Bladder [1, 8]: 0.67 ± 0.16 % ID/g
- Biodistribution: Blood [1, 8]: 0.21 ± 0.03 % ID/g
- Biodistribution: Bone [1, 8]: 0.64 ± 0.12 % ID/g
- Biodistribution: Brain [1, 8]: 0.20 ± 0.04 % ID/g
- Biodistribution: GIT [1, 8]: 1.07 ± 0.26 % ID/g
- Biodistribution: Heart [1, 8]: 5.41 ± 0.71 % ID/g
- Biodistribution: Kidney [1, 8]: 3.95 ± 1.01 % ID/g
- Biodistribution: Liver [1, 8]: 0.63 ± 0.21 % ID/g
- Biodistribution: Lungs [1, 8]: 14.80 ± 3.67 % ID/g
- Biodistribution: Muscle [1, 8]: 0.46 ± 0.08 % ID/g
- Biodistribution: Olfactory bulbs [1, 8]: 0.44 ± 0.05 % ID/g
- Biodistribution: Pancreas [1, 8]: 1.42 ± 0.45 % ID/g
- Biodistribution: Skin [1, 8]: 0.37 ± 0.05 % ID/g
- Biodistribution: Spleen [1, 8]: 4.68 ± 0.90 % ID/g
- Biodistribution: Stomach [1, 8]: 0.71 ± 0.21 % ID/g
- Biodistribution: Testes [1, 8]: 0.29 ± 0.05 % ID/g
- Biodistribution: Thymus [1, 8]: 0.81 ± 0.06 % ID/g
- Biodistribution: Thyroid [1, 8]: 10.70 ± 2.08 % ID/g
- Biodistribution: Adrenals [1, 9]: 7.88 ± 1.86 % ID/g
- Biodistribution: Bladder [1, 9]: 0.60 ± 0.11 % ID/g
- Biodistribution: Blood [1, 9]: 0.20 ± 0.03 % ID/g
- Biodistribution: Bone [1, 9]: 0.73 ± 0.13 % ID/g
- Biodistribution: Brain [1, 9]: 0.20 ± 0.03 % ID/g
- Biodistribution: GIT [1, 9]: 1.09 ± 0.13 % ID/g
- Biodistribution: Heart [1, 9]: 5.32 ± 0.74 % ID/g
- Biodistribution: Kidney [1, 9]: 3.10 ± 0.51 % ID/g
- Biodistribution: Liver [1, 9]: 0.40 ± 0.04 % ID/g
- Biodistribution: Lungs [1, 9]: 13.44 ± 2.71 % ID/g
- Biodistribution: Muscle [1, 9]: 0.39 ± 0.07 % ID/g
- Biodistribution: Olfactory bulbs [1, 9]: 0.52 ± 0.05 % ID/g
- Biodistribution: Pancreas [1, 9]: 0.88 ± 0.18 % ID/g
- Biodistribution: Skin [1, 9]: 0.43 ± 0.07 % ID/g
- Biodistribution: Spleen [1, 9]: 3.89 ± 0.54 % ID/g
- Biodistribution: Stomach [1, 9]: 0.52 ± 0.13 % ID/g
- Biodistribution: Testes [1, 9]: 0.37 ± 0.06 % ID/g
- Biodistribution: Thymus [1, 9]: 0.91 ± 0.16 % ID/g
- Biodistribution: Thyroid [1, 9]: 11.55 ± 4.24 % ID/g
- Biodistribution: Bone [1, 10]: 0.64 ± 0.07 % ID/g
- Biodistribution: Heart [1, 10]: 4.62 ± 0.27 % ID/g
- Biodistribution: Lungs [1, 10]: 11.63 ± 1.52 % ID/g
- Biodistribution: Skin [1, 10]: 0.37 ± 0.03 % ID/g
- Biodistribution: Bone [1, 11]: 1.01 ± 0.09 % ID/g
- Biodistribution: Heart [1, 11]: 2.82 ± 0.15 % ID/g
- Biodistribution: Lungs [1, 11]: 8.09 ± 1.14 % ID/g
- Biodistribution: Skin [1, 11]: 0.49 ± 0.03 % ID/g
- Biodistribution: Adrenals [1, 12]: 9.77 ± 2.42 % ID/g
- Biodistribution: Bladder [1, 12]: 1.08 ± 0.14 % ID/g
- Biodistribution: Blood [1, 12]: 0.26 ± 0.03 % ID/g
- Biodistribution: Bone [1, 12]: 1.22 ± 0.22 % ID/g
- Biodistribution: Brain [1, 12]: 0.23 ± 0.03 % ID/g
- Biodistribution: GIT [1, 12]: 1.43 ± 0.34 % ID/g
- Biodistribution: Heart [1, 12]: 3.38 ± 0.44 % ID/g
- Biodistribution: Kidney [1, 12]: 1.61 ± 0.29 % ID/g
- Biodistribution: Liver [1, 12]: 0.34 ± 0.05 % ID/g
- Biodistribution: Lungs [1, 12]: 10.26 ± 1.09 % ID/g
- Biodistribution: Muscle [1, 12]: 0.27 ± 0.03 % ID/g
- Biodistribution: Olfactory bulbs [1, 12]: 0.50 ± 0.13 % ID/g
- Biodistribution: Pancreas [1, 12]: 0.49 ± 0.12 % ID/g
- Biodistribution: Skin [1, 12]: 0.59 ± 0.06 % ID/g
- Biodistribution: Spleen [1, 12]: 2.29 ± 0.50 % ID/g
- Biodistribution: Stomach [1, 12]: 0.49 ± 0.13 % ID/g
- Biodistribution: Testes [1, 12]: 0.52 ± 0.06 % ID/g
- Biodistribution: Thymus [1, 12]: 1.21 ± 0.27 % ID/g
- Biodistribution: Thyroid [1, 12]: 8.29 ± 3.22 % ID/g
- chromatographic logP [2]: 2.7 ± 0.09
